Experimental data: US6495594B2, “Biologically active analogs of discodermolide” (Harbor Branch Oceanographic Institution, Inc., priority 2000, dated 2002)
pIC50: −log10 of the molar value.

Legend:
[1] = tested on: P388 murine leukemia cell lines; experiment: In vitro proliferation of P388 cells (MTT); format: cell-based; conditions: for pIC50: value in parentheses
Procedure: (§1) Discodermolide and discodermolide analogs were analyzed as to their effects on proliferation of A549 human adenocarcinoma and P388 murine leukemia cell lines. P388 cells were obtained from Dr. R. Camalier, National Cancer Institute, Bethesda, MD, and A549 cells were obtained from American Type Culture Collection, Rockville, MD. All cell lines were maintained in tissue culture medium (TCM; Roswell Park Memorial Institute RPMI 1640 supplemented with 100 U/mL penicillin, […], 60 […], 18 mM HEPES, 0.05 mg/mL gentamicin (Life Technologies, Gaithersburg, MD) and 10% fetal bovine serum) and cultured in plastic tissue culture flasks at 37° C. in humidified air containing 5% CO2. Stock cultures of P388 cells were subcultured 1:20 in fresh TCM every 2 to 3 days. Stock cultures of A549 cells were subcultured 1:10 every 3 to 4 days. To assess the antiproliferative effects of agents against the cells, 200 μL cultures (96-well tissue culture plates, Nunc, Denmark) were established at 1 ×10^5 cells/mL in TCM or TCM containing the test agent at 0.03-5.0 μg/mL. After 48-h exposures, P388 cells were enumerated using 3-[4,5-dimethylthiazol-2-yl]-2,5-diphenyltetrazolium bromide (MTT) as described in the literature (M. C. Alley, et al., Cancer Res. 48:589, 1988). A549 cells were enumerated in the same manner after 72 hours exposure. The results were expressed as percent inhibition compared to the negative (no drug) control. Positive drug controls of varying dilutions of 5-fluorouracil and adriamycin (Sigma Chemical Co., St Louis, MO) were included to monitor drug sensitivity of the cell line.
(§2) To quantitate the effects on cell proliferation and resulting IC50 values, 75 μL of warm growth media containing 5 mg/mL MTT is added to each well, cultures returned to the incubator, and left undisturbed for 3 hours. To spectrophotometrically quantitate formation of reduced formazan, plates are centrifuged (500×g, 10 minutes), culture fluids removed by aspiration, and 200 μL of acidified isopropanol (2 mL concentrated HCl /liter isopropanol) added per well. The absorbance of the resulting solutions is measured in a plate reader (TECAN Spectra SLT; TECAN U.S., Research Triangle Park, N.C.) at 570 nm and a 650 nm reference filter. The absorbance of test wells is divided by the absorbance of drug-free wells, and the concentration of agent that results in 50% of the absorbance of untreated cultures (IC50) is determined by linear regression of logit-transformed data (D. J. Finney, Statistical Method in Biological Assay, third ed., pp. 316-348, Charles Griffin Co., London, 1978). A linear relationship between tumor cell number and formazan production has been routinely observed over the range of cell densities observed in these experiments. The two standard drug controls (indicated above) are included in each assay as a check to monitor the drug sensitivity of each of the cell lines and IC50 values are determined for each drug-cell combination.

[2] = tested on: A549 human adenocarcinoma; experiment: In vitro proliferation of A549 cells (MTT); format: cell-based; conditions: for pIC50: value in parentheses
Procedure: as §1, §2

[3] = tested on: A549 human adenocarcinoma tumor cells; experiment: Microtubule bundling patterns in tumor cells by immunofluorescence; format: cell-based; design: key to Microtubule bundling in A549 cells: −: no effect; +/−: minimal or questionable effect; +: weak effect; ++: strong effect; +++: very strong effect equivalent to discodermolide; conditions: for Microtubule bundling in A549 cells: subjective rating versus discodermolide
Procedure: Discodermolide and discodermolide analogs were evaluated as to their effects on the morphology of the microtubule network of cells using mouse anti-alpha-tubulin monoclonal antibody.
On day one, 7×10^4 adherent A549 human adenocarcinoma tumor cells were cultured in TCM overnight at 37° C. in 5% CO2 on 22 mm^2 cover slips in 6-well microtiter plates. On day two, TCM was removed and replaced with 10-1000 nM discodermolide or analog in TCM or TCM without drug (control) and incubated overnight at 37° C. in 5% CO2. On day three, TCM was removed and cells attached to cover slips were fixed with a 3.7% formaldehyde solution in Dulbecco's PBS for 10 minutes at room temperature. Cells were permeabilized with a 2% Triton X-100 solution, 2 mL per well, for 5 minutes at room temperature and washed twice in Dulbecco's PBS prior to staining.
To each well containing cells attached to cover slips a 2 mL volume of mouse anti- alpha-tubulin monoclonal antibody (Cat# T-5168, Sigma Chemical Co., St. Louis, Mo.) diluted 1:1000 in Dulbecco's phosphate buffered saline (D-PBS) was added and the cells incubated at room temperature for 45 minutes. Cover slips were rinsed once with D-PBS. A 2 mL volume of goat-anti-mouse-IgG-FITC conjugated antibody (Cat# T-5262, Sigma Chemical Co., St. Louis, Mo.) diluted 1:1000 in D-PBS was added and the cells incubated at room temperature for 45 minutes. Cover slips were rinsed once in D-PBS and DNA was stained with 0.02 mg/mL propidium iodide together with 0.1 mg/mL of ribonuclease A (RNAse) A in D-PBS at 37° C. for 30 minutes. Cover slips were rinsed three times with sterile distilled water, air-dried and mounted on slides with SlowFade™ antifade solution (Molecular Probes, Eugene, Oreg.) and observed under the microscope using epifluorescence illumination for the presence of abnormal aster and microtubule bundle formations.

[4] = tested on: purified bovine brain tubulin; experiment: Tubulin polymerization (optical density at 350 nm); format: biochemical; design: key to Purified tubulin polymerization by 10 μM / Purified tubulin polymerization at 10 μM: −: no effect; +/−: minimal or questionable effect; +: weak effect; ++: strong effect; +++: very strong effect equivalent to discodermolide; conditions: 10 μM compound, 1 mg/mL tubulin; for Purified tubulin polymerization at 10 μM: Table 12; for Purified tubulin polymerization, temperature at which polymerization commences: temperature ramp 4 to 35° C.
Procedure: (§3) Compounds were tested at 10 μM with 1 mg/mL tubulin. The temperature was varied during the course of the experiment as follows: the experiment was begun with an initial temperature of 4° C. and held for 1 minute; the temperature was then increased to 35° C. at a rate of 1° C./minute, held at 35° C. for 1 minute, decreased to 4° C. at a rate of 2° C/minute, and finally held at 4° C. for 14 minutes. The curves shown are for compounds: discodermolide (I); 2-desmethyldiscodermolide (II); 19-desaminocarbonyldiscodermolide (III); 2-epidiscodermolide (IV); and 3-deoxy-2A-discodermolide (VI).
as §3, with “C./minute,” for “C/minute,”, “for” for “for compounds:”, “8,21,23-hexahydrodiscodermolide (XII)” for “2-desmethyldiscodermolide (II); 19-desaminocarbonyldiscodermolide (III); 2-epidiscodermolide (IV);”, “7-deoxy-8,21,23-hexahydrodiscodermolide (XIII).” for “3-deoxy-2A-discodermolide (VI).”
Polymerization of purified bovine brain tubulin (Cytoskeleton Inc., Denver, Colo.) was followed by changes in the optical density of tubulin solutions at 350 nm in a Hitachi U-3010 spectrophotometer equipped with a SPR-10 electronic thermostatted cell holder. Stock solutions of tubulin were diluted on ice in G-PEM buffer (1 mM GTP, 80 mM PIPES, 1 mM EGTA, 0.5 mM magnesium chloride; pH 6.8) to a final concentration of 1 mg/mL. The instrument was zeroed on this solution at 4° C. Discodermolide, and its analogs, were then added to the tubulin solution to a final concentration of 10 μM, quickly mixed, and the absorbance monitored over a period of 61 minutes. Within this time the temperature of the thermoelectric cell holder was held at 4° C. for 1 minute, increased to 35° C. at a rate of 1° C./minute, reduced back to 4° C. at a rate of 2° C./minute, and held at 4° C. for an additional 14 minutes.

[5] = tested on: A549 human lung cells; experiment: Cell cycle progression by flow cytometry; format: cell-based
Procedure: Cell cycle studies were initiated in order to pinpoint a specific phase within the cell cycle in which discodermolide analogs were exerting their antiproliferative effect. A549 human lung cells were used as cell cycle targets to compare the effects of discodermolide and discodermolide analogs on perturbation of the cell cycle. Cell cycle analyses were performed as follows: A549 cells were incubated at 37° C. in 5% CO2 in air in the presence or absence of varying concentrations of discodermolide or discodermolide analogs for 24 hr. Cells were harvested, fixed in ethanol, washed, and stained with 0.02 mg/mL of propidium iodide (P.I.) together with 0.1 mg/mL of RNAse A. Stained preparations were analyzed on a Coulter EPICS ELITE flow cytometer with 488 nm excitation. Fluorescence measurements and resulting DNA histograms were collected from at least 10,000 P.I. stained cells at an emission wavelength of 690 nm. Raw histogram data was further analyzed using a cell cycle analysis program (Multicycle, Phoenix Flow Systems).

[6] = Mus musculus, P388, 48-h exposure
[7] = Homo sapiens, A549, 72 hours exposure

C=CC=CC(C)C(OC(N)=O)C(C)C(OC(C)=O)C(C)CC(C)=CC(C)C(OC(C)=O)C(C)C=CC(CC1OC(=O)C(C)=CC1C)OC(C)=O (stereo not drawn) [3-deoxy-2Δ-discodermolide-7,11,17-triacetate]
IC50 P388 cells ([1]; 48-h exposure): 4.96 µg/mL | pIC50 ([1]; 48-h exposure): 5.15 | IC50 A549 cells ([2]; 72 hours exposure): >5 µg/mL | pIC50 ([2]; 72 hours exposure): < 5.15 | Microtubule bundling in A549 cells ([3]; Table 12): − | Purified tubulin polymerization at 10 μM ([4]; subjective rating): −

CCCCC(C)C(OC(N)=O)C(C)C(OC(C)=O)C(C)CC(C)=CC(C)C(OC(C)=O)C(C)CCCCC1OC(=O)C(C)C(OC(C)=O)C1C (stereo not drawn) [7-deoxy-8,21,23-hexahydrodiscodermolide-3,11,17-triacetate]
IC50 P388 cells ([1]; 48-h exposure): >5 µg/mL | pIC50 ([1]; 48-h exposure): < 5.12 | Microtubule bundling observation ([3]; 10 nM through 1000 nM): no bundling seen | Microtubule bundling in A549 cells ([3]; Table 12): − | Cell cycle effects ([5]; 10 nM): No cell cycle effects were noted | Cell cycle effects (100 nM) ([5]; 100 nM, 24 hr, A549): No cell cycle effects were noted | Cell cycle effects ([5]; 1000 nM): No cell cycle effects were noted

Methyldiscodermolate [Methyldiscodermolate (V)]
IC50 P388 cells ([1]; 48-h exposure): 0.04 µg/mL | pIC50 ([1]; 48-h exposure): 7.18 | IC50 A549 cells ([2]; 72 hours exposure): 0.045 µg/mL | pIC50 ([2]; 72 hours exposure): 7.13 | Microtubule bundling in A549 cells ([3]; Table 11): + | Purified tubulin polymerization, temperature at which polymerization commences [4]: (12° C.)

C=C/C=C\[C@H](C)[C@H](OC(N)=O)[C@@H](C)[C@H](O)[C@@H](C)C/C(C)=C\[C@H](C)[C@@H](O)[C@@H](C)/C=C\[C@@H](O)C[C@@H]1OC(=O)[C@H](C)[C@@H](O)[C@H]1C [Discodermolide (I), discodermolide]
IC50 [1, 6]: 0.021 µg/mL | pIC50 [1, 6]: 7.46 | IC50 [2, 7]: 0.008 µg/mL | pIC50 [2, 7]: 7.87 | Microtubule bundling in A549 cells ([3]; Table 11): +++ | Purified tubulin polymerization, temperature at which polymerization commences [4]: 4 °C | Purified tubulin polymerization by 10 μM ([4]; subjective rating, Table 11): +++

C=CC=CC(C)C(OC(N)=O)C(C)C(OC(C)=O)C(C)CC(C)=CC(C)C(OC(C)=O)C(C)C=CC(O)CC1OC(=O)C(C)=CC1C (stereo not drawn) [3-deoxy-2Δ-discodermolide-11,17-diacetate]
IC50 P388 cells ([1]; 48-h exposure): >5 µg/mL | pIC50 ([1]; 48-h exposure): < 5.12 | IC50 A549 cells ([2]; 72 hours exposure): >5 µg/mL | pIC50 ([2]; 72 hours exposure): < 5.12 | Microtubule bundling in A549 cells ([3]; Table 12): − | Purified tubulin polymerization at 10 μM ([4]; subjective rating): −

C=CC=CC(C)C(OC(N)=O)C(C)C(OC(C)=O)C(C)CC(C)=CC(C)C(O)C(C)C=CC(O)CC1OC(=O)C(C)=CC1C (stereo not drawn) [3-deoxy-2Δ-discodermolide-17-acetate]
IC50 P388 cells ([1]; 48-h exposure): >5 µg/mL | pIC50 ([1]; 48-h exposure): < 5.09 | IC50 A549 cells ([2]; 72 hours exposure): >5 µg/mL | pIC50 ([2]; 72 hours exposure): < 5.09 | Microtubule bundling in A549 cells ([3]; Table 12): − | Purified tubulin polymerization at 10 μM ([4]; subjective rating): −

C=CC=CC(C)C(OC(N)=O)C(C)C(O)C(C)CC(C)=CC(C)C(OC(C)=O)C(C)C=CC(O)CC1OC(=O)C(C)=CC1C (stereo not drawn) [3-Deoxy-2Δ-discodermolide-11-acetate (X), 3-deoxy-2Δ-discodermolide-11-acetate]
IC50 P388 cells ([1]; 48-h exposure): 0.32 µg/mL | pIC50 ([1]; 48-h exposure): 6.28 | IC50 A549 cells ([2]; 72 hours exposure): 1.93 µg/mL | pIC50 ([2]; 72 hours exposure): 5.50 | Microtubule bundling in A549 cells ([3]; Table 12): − | Purified tubulin polymerization at 10 μM ([4]; subjective rating): −

C=CC=CC(C)C(OC(N)=O)C(C)C(O)C(C)CC(C)=CC(C)C(O)C(C)C=CC(O)CC1OC(=O)C(C)=CC1C (stereo not drawn) [3-Deoxy-2Δ-discodermolide (VI), 3-deoxy-2Δ-discodermolide]
IC50 P388 cells ([1]; 48-h exposure): 0.02 µg/mL | pIC50 ([1]; 48-h exposure): 7.47 | IC50 A549 cells ([2]; 72 hours exposure): 0.0125 µg/mL | pIC50 ([2]; 72 hours exposure): 7.66 | Microtubule bundling in A549 cells ([3]; Table 12): +++ | Purified tubulin polymerization, temperature at which polymerization commences [4]: 21 °C | Purified tubulin polymerization at 10 μM ([4]; subjective rating): +
